Data on three compounds can be found in PMC7400577 (Scientific Reports, 2020).

For test [1], the target named is T1, hGAT3 L314Q (Homo sapiens, UniProt P48066, L314Q).
T1 construct: expressed in transfected cells; host or cells: tsA201 cells, transient (PolyFect), pcDNA5/FRT vector
T1 sequence (P48066 1-632 L314Q): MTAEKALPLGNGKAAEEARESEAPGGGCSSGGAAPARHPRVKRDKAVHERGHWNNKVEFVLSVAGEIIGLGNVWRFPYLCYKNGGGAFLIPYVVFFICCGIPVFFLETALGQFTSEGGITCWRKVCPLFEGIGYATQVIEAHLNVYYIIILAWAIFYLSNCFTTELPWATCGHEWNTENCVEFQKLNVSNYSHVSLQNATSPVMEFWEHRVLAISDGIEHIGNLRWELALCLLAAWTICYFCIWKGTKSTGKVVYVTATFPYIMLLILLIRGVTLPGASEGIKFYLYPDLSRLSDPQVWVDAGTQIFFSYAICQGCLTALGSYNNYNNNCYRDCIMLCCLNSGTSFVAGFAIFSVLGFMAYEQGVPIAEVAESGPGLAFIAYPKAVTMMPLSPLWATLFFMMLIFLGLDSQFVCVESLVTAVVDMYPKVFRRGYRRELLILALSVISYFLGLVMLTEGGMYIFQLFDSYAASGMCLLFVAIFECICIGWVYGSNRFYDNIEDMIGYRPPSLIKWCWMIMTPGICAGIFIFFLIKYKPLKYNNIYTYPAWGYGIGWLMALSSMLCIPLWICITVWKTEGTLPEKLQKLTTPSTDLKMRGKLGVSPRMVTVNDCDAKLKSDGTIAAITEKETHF
Description: [3H]GABA uptake inhibition at hGAT3 L314Q transiently expressed in tsA201 cells. In kind it is cell-based. As to conditions: 30 nM [3H]GABA, transient expression.

The target of test [2] is T2, hGAT3 wt (Homo sapiens, UniProt P48066).
T2 construct: expressed in transfected cells; host or cells: tsA201 cells, transient (PolyFect), pcDNA5/FRT vector
T2 sequence (P48066 1-632): T1 sequence (P48066 1-632 L314Q) with Q314L
Description: [3H]GABA uptake inhibition at wt hGAT3 transiently expressed in tsA201 cells. As to conditions: 30 nM [3H]GABA, transient expression. In kind it is cell-based.

Test [3] has as its system BGT1. As to conditions: competitive BGT1 inhibitor; cited from earlier work.
In test [4] the target is T3, hGAT3 (Homo sapiens, UniProt P48066).
T3 construct: expressed in transfected cells
T3 sequence (P48066 1-632): T1 sequence (P48066 1-632 L314Q) with Q314L
Description: [3H]GABA uptake inhibition at hGAT3 stably expressed in CHO Flp-In cells. As to conditions: 30 nM [3H]GABA, 3 min, CHO Flp-In cells stably expressing hGAT3. In kind it is cell-based. The method, then: (§1) CHO Flp-In and tsA201 cells were cultured at 37 °C in a humidified atmosphere of […] and 5% CO2. As previously described[38],[63], CHO Flp-In cells stably expressing the hGATs were cultured in Ham’s F12 Nutrient Mix supplemented with 10% FBS, 1% P/S and plasmocin (5 µg/mL) under the selection pressure of hygromycin B (200 µg/mL). DMEM with GlutaMAX-I supplemented with 10% FBS and 1% P/S was used as growth medium for the tsA201 cells, which were transfected with DNA constructs using PolyFect according to the manufacturer’s specifications (Qiagen, West Sussex, UK), but with half of the recommended reagent volumes.
(§2) Uptake assays were performed in PDL-coated white 96-well polystyrene cell culture microplates (PerkinElmer, Boston, MA, USA) as previously described[38],[63]. […] Assay buffer was HBSS supplemented with 20 mM HEPES, 1 mM CaCl2 and 1 mM MgCl2, pH 7.4. […] After termination, scintillation liquid (MicroScint-20, PerkinElmer) was added and the radioactivity measured in a TopCount NXT Microplate Scintillation Counter (PerkinElmer).
(§3) Data analysis and statistical evaluation were performed in GraphPad Prism 7.02 (GraphPad Software, San Diego, CA, USA). Concentration-uptake inhibition curves, generated from the radioligand-based uptake assays, were fitted by non-linear regression, using the equation for sigmoidal concentration–response with variable slope: Y = Bottom + (Top–Bottom)/(1 + 10^((logIC50 − X) × HillSlope)), where Y is the response, X is the logarithm of the concentration, Top and Bottom are the plateaus in same units as Y, logIC50 is the concentration giving a response halfway between Bottom and Top, and the HillSlope is the steepness of the curve. For the substrate concentration–response curves generated from the FMP assay, the same equation was used but with logEC50 instead for logIC50. Unless otherwise stated, data are presented as means ± S.E.M. of at least three independent pooled experiments performed in triplicates.

In test [5] the target is T4, hGAT2 (Homo sapiens, UniProt Q9NSD5).
T4 construct: expressed in transfected cells
T4 sequence (Q9NSD5 1-602): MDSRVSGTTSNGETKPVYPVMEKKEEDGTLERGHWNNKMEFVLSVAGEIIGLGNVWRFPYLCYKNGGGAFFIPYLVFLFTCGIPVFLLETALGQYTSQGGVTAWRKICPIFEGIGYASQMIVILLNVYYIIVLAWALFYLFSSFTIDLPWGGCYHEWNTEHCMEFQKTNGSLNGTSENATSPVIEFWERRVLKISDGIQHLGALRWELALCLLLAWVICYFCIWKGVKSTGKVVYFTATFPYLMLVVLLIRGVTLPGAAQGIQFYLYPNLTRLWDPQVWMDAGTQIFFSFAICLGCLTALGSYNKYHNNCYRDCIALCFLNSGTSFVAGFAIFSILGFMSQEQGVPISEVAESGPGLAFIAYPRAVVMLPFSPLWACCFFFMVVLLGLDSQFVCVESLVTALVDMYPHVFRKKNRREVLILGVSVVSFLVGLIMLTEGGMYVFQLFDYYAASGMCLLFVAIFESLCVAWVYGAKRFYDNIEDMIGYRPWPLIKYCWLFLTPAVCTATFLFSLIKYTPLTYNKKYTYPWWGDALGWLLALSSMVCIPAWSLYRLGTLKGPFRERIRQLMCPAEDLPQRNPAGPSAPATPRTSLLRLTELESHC
Description: [3H]GABA uptake inhibition at hGAT2 stably expressed in CHO Flp-In cells. The following applies: 30 nM [3H]GABA, 3 min, CHO Flp-In cells stably expressing hGAT2; read-out: IC50 hGAT2. Type of test: cell-based. Here is the method:
as §1, §2, §3

The target of test [6] is T5, hBGT1 (Homo sapiens, UniProt P48065).
T5 construct: expressed in transfected cells
T5 sequence (P48065 1-614): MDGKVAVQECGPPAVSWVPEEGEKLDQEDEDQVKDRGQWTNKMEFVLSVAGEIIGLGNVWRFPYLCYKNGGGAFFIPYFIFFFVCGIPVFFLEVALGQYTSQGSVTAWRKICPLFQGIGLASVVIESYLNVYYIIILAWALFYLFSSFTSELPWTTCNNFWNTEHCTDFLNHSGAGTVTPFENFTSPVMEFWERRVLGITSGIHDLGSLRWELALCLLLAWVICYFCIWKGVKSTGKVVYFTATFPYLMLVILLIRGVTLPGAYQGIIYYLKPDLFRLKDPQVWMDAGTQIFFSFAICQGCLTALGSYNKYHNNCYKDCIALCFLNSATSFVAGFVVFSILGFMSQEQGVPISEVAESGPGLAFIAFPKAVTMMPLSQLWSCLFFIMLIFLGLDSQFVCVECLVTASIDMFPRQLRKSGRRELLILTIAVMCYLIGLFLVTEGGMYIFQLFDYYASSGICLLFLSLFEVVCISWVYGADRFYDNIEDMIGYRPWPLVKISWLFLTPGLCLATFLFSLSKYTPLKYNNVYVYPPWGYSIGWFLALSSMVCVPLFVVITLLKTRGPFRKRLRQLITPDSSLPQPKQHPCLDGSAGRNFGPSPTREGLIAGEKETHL
Type of test: cell-based. Here is the method:
as §1, §2, §3

For test [7], the target named is T5, hBGT1. Description: FLIPR Membrane Potential (FMP) assay at hBGT1 stably expressed in CHO Flp-In cells. In kind it is cell-based. The method, then:
The fluorescence-based FMP assay was performed as previously described, for the functional characterization of the electrogenic transport of substrates via hBGT1. Briefly, CHO Flp-In cells stably expressing hBGT1 or hGAT1 were plated (~ 50,000 cells/well) into black PDL-coated 96-well plates with clear bottom (VWR, Radnor, PA, USA). The next day, the growth medium was removed, and cells were washed once with HBSS assay buffer and FMP Blue Dye (Molecular Devices, Crawley, UK), added, and incubated. Ligands were added via the NOVOStar plate reader (BMG Labtech GmbH, Offenburg, Germany), preheated to 37 °C, approximately 10 min before reading of the cell plate. The fluorescence signals were measured for 33.8 s upon ligand addition using an emission and excitation wavelength of […], respectively. Electrogenic transport of substrates via hBGT1 will lead to an influx of the negatively charged FMP Blue dye that will bind to intracellular proteins and lipids resulting in an increase in the fluorescence signal.
as §3

In test [8] the target is T6, hGAT1 (Homo sapiens, UniProt P30531).
T6 construct: expressed in transfected cells
T6 sequence (P30531 whole entry): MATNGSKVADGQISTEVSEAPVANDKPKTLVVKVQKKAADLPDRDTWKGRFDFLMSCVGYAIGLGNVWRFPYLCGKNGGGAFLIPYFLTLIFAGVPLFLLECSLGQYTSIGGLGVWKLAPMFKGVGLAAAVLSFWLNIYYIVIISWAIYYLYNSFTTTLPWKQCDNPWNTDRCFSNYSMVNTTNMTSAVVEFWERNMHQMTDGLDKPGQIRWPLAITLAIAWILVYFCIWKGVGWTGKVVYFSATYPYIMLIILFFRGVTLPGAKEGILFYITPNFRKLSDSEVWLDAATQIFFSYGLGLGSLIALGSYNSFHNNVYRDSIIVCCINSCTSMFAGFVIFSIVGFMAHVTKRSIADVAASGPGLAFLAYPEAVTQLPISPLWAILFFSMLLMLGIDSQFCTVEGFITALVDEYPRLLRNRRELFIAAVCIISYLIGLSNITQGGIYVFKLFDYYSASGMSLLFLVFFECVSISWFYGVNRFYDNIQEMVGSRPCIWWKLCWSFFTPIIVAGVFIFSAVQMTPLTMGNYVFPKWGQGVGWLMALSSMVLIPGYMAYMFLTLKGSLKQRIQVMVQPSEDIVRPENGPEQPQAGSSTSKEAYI
Description: [3H]GABA uptake inhibition at hGAT1 stably expressed in CHO Flp-In cells. In kind it is cell-based. The following applies: 30 nM [3H]GABA, 3 min, CHO Flp-In cells stably expressing hGAT1; read-out: IC50 hGAT1. Here is the method: as §1, §2, §3

Residue numbers refer to the chain shown, from its start. Read-outs that look alike come from different tables or passages of the source.

One may read the EC50 as the concentration at which the effect is half-maximal. A low value points to a more potent agent.

On to `NCCCC(=O)O` [GABA, γ-Aminobutyric acid, reference compound], for which the IC50 in test [1] (read-out: IC50 GAT3 L314Q) is 5.2 µM; in test [1] (read-out: pIC50 ± S.E.M. GAT3 L314Q (converted)), 5.13 µM; in test [2] (read-out: IC50 GAT3 wt), 8.2 µM; in test [2] (read-out: pIC50 ± S.E.M. GAT3 wt (converted)) it was 7.94 µM.

As for `N[C@@]12CC[C@H](C(=O)O)[C@@H]1C2` [compound 1], the IC50 in test [3] is 0.59 µM.

For `NC1=NCC(C(=O)O)CN1Cc1ccc(-c2ccccc2)cc1` (stereo not drawn) [compound 5], the IC50 is 396 µM in test [4] (read-out: IC50 hGAT3); 380 µM in test [4] (read-out: pIC50 ± S.E.M. hGAT3 (converted)); 382 µM in test [5]; 50 µM in test [6] (30 nM [3H]GABA, 3 min, CHO Flp-In cells stably expressing hBGT1, read-out: IC50 hBGT1); 1040 µM in test [8]. Also, the “decrease of hBGT1 inhibitory potency compared to ATPCA” value in test [6] ([3H]GABA uptake, CHO Flp-In cells) is 20–65 fold. Besides, the “subtype-selectivity for hBGT1 over the other hGATs” value in test [6] (estimated from [3H]GABA uptake IC50 values, CHO Flp-In cells) is “at least 7 times”. In test [7] (concentration-dependent increase in fluorescence signal), the “substrate character at hBGT1 in FMP assay” value is given as “substrates for hBGT1”. Moreover, in test [7] (hBGT1 stably expressed in CHO Flp-In cells, FMP assay), the “Mean Rmax as % of GABA Rmax ± S.E.M.” value is listed as 73 ± 2.8 % of GABA Rmax. This compound had a concentration giving a half-maximal response (EC50) in test [7] (hBGT1 stably expressed in CHO Flp-In cells, three independent experiments) of 194 µM.
